ChEMBL document CHEMBL1201862, “PubChem BioAssay data set” (2004)
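All cell lines were grown in 96-well plates and treated with compound for 48 hours. The concentration for 50% growth inhibition is given as GI50.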 Calls of active or inactive are those of the source. Rule as the data show it: active = GI50 up to about 1.1 µM and inactive = higher.

What was measured:
Assay in all cases: NCI anticancer screen, dose series, 48 h
[1] = test system: MDA-MB-435
[2] = test system: CAKI-1
[3] = test system: HCC 2998
[4] = test system: MDA-N
[5] = test system: SW-620
[6] = test system: SK-MEL-28
[7] = test system: ACHN
[8] = test system: T47D
[9] = test system: PC-3
[10] = test system: HCT-15
[11] = test system: SK-MEL-2
[12] = test system: A498
[13] = test system: SNB-75
[14] = test system: SN12C
[15] = test system: UO-31
[16] = test system: U-251
[17] = test system: OVCAR-3
[18] = test system: MCF7
[19] = test system: MOLT-4
[20] = test system: OVCAR-5

SMILES | GI50 [1] | GI50 [2] | GI50 [3] | GI50 [4] | GI50 [5] | GI50 [6] | GI50 [7] | GI50 [8] | GI50 [9] | GI50 [10] [µM] | GI50 [11] | GI50 [12] | GI50 [13] | GI50 [14] | GI50 [15] | GI50 [16] | GI50 [17] | GI50 [18] | GI50 [19] | GI50 [20]
O=C1NC(c2ccccc2)C1N(Cc1ccccc1)Cc1ccccc1 (centres undefined) | > 100 µM (inactive) | > 100 µM (inactive) | > 100 µM (inactive) | > 100 µM (inactive) | > 100 µM (inactive) | > 100 µM (inactive) | > 100 µM (inactive) | > 100 µM (inactive) | > 100 µM (inactive) | > 100 | > 100 µM (inactive) | > 100 µM (inactive) | 25.5 µM (inactive) | > 100 µM (inactive) | > 100 µM (inactive) | > 100 µM (inactive) | > 100 µM (inactive) | > 100 µM (inactive) | > 100 µM (inactive) | > 100 µM (inactive)
C[C@]12CC[C@H]3[C@@H](CCC4=C[C@@H](OC5OCC(OC6OC(CO)C(O)C(O)C6O)C(O)C5O)CC[C@@]43C=O)[C@@]1(O)CCC2C1=CC(=O)OC1 (some centres undefined) | 0.843 µM (active) | 0.347 µM (active) | 0.421 µM (active) | 1.01 µM (active) | 0.746 µM (active) | 2.57 µM (inactive) | 0.137 µM (active) | 1.5 µM (inactive) | 0.631 µM (active) | 0.504 | 1.62 µM (inactive) | 0.755 µM (active) | 1.4 µM (inactive) | 0.364 µM (active) | 0.561 µM (active) | 0.849 µM (active) | 0.375 µM (active) | 0.94 µM (active) | 0.0986 µM (active) | 1.86 µM (inactive)
CC1(C)CC(=O)C2=C(C1)c1c(ccc3ccccc13)NC2c1cn(Cc2ccc(Cl)cc2)c2ccccc12 (centres undefined) | > 100 µM (inactive) | 13.3 µM (inactive) | – | > 100 µM (inactive) | > 100 µM (inactive) | – | 61.9 µM (inactive) | 7.19 µM (inactive) | > 100 µM (inactive) | > 100 | > 100 µM (inactive) | 2.55 µM (inactive) | > 100 µM (inactive) | > 100 µM (inactive) | > 100 µM (inactive) | 56.8 µM (inactive) | 18.7 µM (inactive) | > 100 µM (inactive) | 58.1 µM (inactive) | 36.5 µM (inactive)
COc1ccc(-n2c(=O)n(C)c(=O)n2-c2c(C)c(C)c(C)c(C)c2C)cc1 | > 100 µM (inactive) | > 100 µM (inactive) | > 100 µM (inactive) | > 100 µM (inactive) | > 100 µM (inactive) | > 100 µM (inactive) | > 100 µM (inactive) | > 100 µM (inactive) | > 100 µM (inactive) | > 100 | > 100 µM (inactive) | > 100 µM (inactive) | > 100 µM (inactive) | > 100 µM (inactive) | > 100 µM (inactive) | > 100 µM (inactive) | > 100 µM (inactive) | > 100 µM (inactive) | > 100 µM (inactive) | > 100 µM (inactive)
CCCCCCNC(=S)N/N=C(\C)c1ccccn1 | 1.53 µM (inactive) | < 0.01 µM (active) | 0.741 µM (active) | 0.904 µM (active) | < 0.0322 µM (active) | 2.56 µM (inactive) | < 0.0113 µM (active) | < 0.01 µM (active) | < 0.01 µM (active) | < 0.01 | 3.09 µM (inactive) | 3.18 µM (inactive) | 3.99 µM (inactive) | 1.41 µM (inactive) | 0.124 µM (active) | 0.2 µM (active) | < 0.01 µM (active) | < 0.0415 µM (active) | < 0.01 µM (active) | 0.728 µM (active)
COc1ccc2c3c([nH]c2c1)CCN(CCCC(=O)c1ccc(F)cc1)C3 | 17.1 µM (inactive) | 16 µM (inactive) | 5.53 µM (inactive) | 20 µM (inactive) | 17 µM (inactive) | 15.3 µM (inactive) | 17.1 µM (inactive) | 19 µM (inactive) | 12.6 µM (inactive) | 20.1 | 17.5 µM (inactive) | 16 µM (inactive) | 12.2 µM (inactive) | 15.9 µM (inactive) | 14 µM (inactive) | 17.2 µM (inactive) | 18.8 µM (inactive) | 17.3 µM (inactive) | 16.7 µM (inactive) | 13.8 µM (inactive)
C[N+]1(Cc2ccc(Cl)c(Cl)c2)CCCC1C1CCCN(Cc2ccc(Cl)c(Cl)c2)C1 (centres undefined) | > 100 µM (inactive) | > 100 µM (inactive) | > 100 µM (inactive) | > 100 µM (inactive) | > 100 µM (inactive) | > 100 µM (inactive) | > 100 µM (inactive) | > 100 µM (inactive) | > 100 µM (inactive) | > 100 | > 100 µM (inactive) | > 100 µM (inactive) | > 100 µM (inactive) | > 100 µM (inactive) | > 100 µM (inactive) | > 100 µM (inactive) | > 100 µM (inactive) | > 100 µM (inactive) | > 100 µM (inactive) | > 100 µM (inactive)
S=C1Cc2cc3ccccc3nc2-c2ccccc2N1 | 29.7 µM (inactive) | 29.6 µM (inactive) | 16.2 µM (inactive) | 5.13 µM (inactive) | 37 µM (inactive) | 27.5 µM (inactive) | 24 µM (inactive) | 8.3 µM (inactive) | 36 µM (inactive) | 42.3 | 36.7 µM (inactive) | 6.31 µM (inactive) | 7.24 µM (inactive) | 16.7 µM (inactive) | 9.06 µM (inactive) | 13.7 µM (inactive) | 9.57 µM (inactive) | 38.9 µM (inactive) | > 96.8 µM (inactive) | 51.2 µM (inactive)
O=C1Nc2ccccc2SC1=C(C(=O)c1ccccc1)C(=O)c1ccccc1 | 21.8 µM (inactive) | 60.4 µM (inactive) | 22.2 µM (inactive) | 19.7 µM (inactive) | 34.6 µM (inactive) | 55.6 µM (inactive) | 42.1 µM (inactive) | 53 µM (inactive) | 26.3 µM (inactive) | 37.5 | 24.8 µM (inactive) | 32.4 µM (inactive) | 51.5 µM (inactive) | 24 µM (inactive) | 53.3 µM (inactive) | 33.2 µM (inactive) | 12.3 µM (inactive) | 34.9 µM (inactive) | 1.04 µM (active) | 27.8 µM (inactive)
O=C(CC(c1ccccc1)c1c(O)c2ccccc2oc1=O)c1ccccc1 (centres undefined) | 72.6 µM (inactive) | 21.2 µM (inactive) | 93.3 µM (inactive) | > 84.5 µM (inactive) | > 100 µM (inactive) | 72.1 µM (inactive) | 98.4 µM (inactive) | 58.1 µM (inactive) | > 93.3 µM (inactive) | 78.9 | > 92.3 µM (inactive) | > 61.9 µM (inactive) | > 47.5 µM (inactive) | > 87.9 µM (inactive) | 98.4 µM (inactive) | > 100 µM (inactive) | 30.4 µM (inactive) | > 85.9 µM (inactive) | 84.9 µM (inactive) | > 100 µM (inactive)
Cc1ccc(C)c2c1n1c(=O)n(C)c(=O)n21 | > 100 µM (inactive) | > 100 µM (inactive) | > 100 µM (inactive) | > 100 µM (inactive) | > 100 µM (inactive) | > 100 µM (inactive) | > 100 µM (inactive) | > 100 µM (inactive) | > 100 µM (inactive) | > 100 | > 100 µM (inactive) | > 100 µM (inactive) | > 100 µM (inactive) | > 100 µM (inactive) | > 100 µM (inactive) | > 100 µM (inactive) | > 100 µM (inactive) | > 100 µM (inactive) | – | > 100 µM (inactive)
CCOC(CNCCC(=O)OC)OCC | > 10 µM (inactive) | > 10 µM (inactive) | > 10 µM (inactive) | > 10 µM (inactive) | > 10 µM (inactive) | > 10 µM (inactive) | > 10 µM (inactive) | > 10 µM (inactive) | > 10 µM (inactive) | > 10 | > 10 µM (inactive) | > 10 µM (inactive) | > 10 µM (inactive) | > 10 µM (inactive) | > 10 µM (inactive) | > 10 µM (inactive) | > 10 µM (inactive) | > 10 µM (inactive) | > 10 µM (inactive) | –
CC(=O)Nc1c(C)cc2c(nc3n2CCC3OC(C)=O)c1[N+](=O)[O-] (centres undefined) | > 100 µM (inactive) | > 100 µM (inactive) | – | > 100 µM (inactive) | > 100 µM (inactive) | > 100 µM (inactive) | > 100 µM (inactive) | > 100 µM (inactive) | > 100 µM (inactive) | > 100 | > 100 µM (inactive) | > 100 µM (inactive) | > 100 µM (inactive) | > 100 µM (inactive) | > 100 µM (inactive) | > 100 µM (inactive) | > 100 µM (inactive) | > 100 µM (inactive) | > 100 µM (inactive) | > 100 µM (inactive)
CC[C@H](C)[C@@H]([C@@H](CC(=O)N1CCC[C@H]1[C@H](OC)[C@@H](C)C(=O)NCCc1ccccc1)OC)N(C)C(=O)C(NC(=O)[C@H](C(C)C)N(C)C)C(C)C (some centres undefined) | 3.18e-05 µM (active) | 0.00216 µM (active) | 0.000266 µM (active) | 3.46e-05 µM (active) | 0.000249 µM (active) | > 10 µM (inactive) | 0.000757 µM (active) | > 10 µM (inactive) | 0.000119 µM (active) | 0.00201 | 0.000423 µM (active) | 0.000266 µM (active) | 0.000275 µM (active) | 0.000361 µM (active) | 0.00103 µM (active) | 0.000251 µM (active) | 4.09e-05 µM (active) | 4.54e-05 µM (active) | 0.000132 µM (active) | –
